Literature values as cited in patent US9737644B2, “Medical device coatings” (TYRX, Inc., priority 2010, dated 2017).

System: myofibroblast formation
Conditions: animal studies, Ajmal et al. (2003)

## O=S(=O)([O-])CCS.[Na+] [Mesna, sodium 2-mercaptoethane sulfonate]
  myofibroblast formation: diminish myofibroblast formation
